Data on four compounds can be found in PMC8471306, “Chemical Changes of Hydroperoxy-, Epoxy-, Keto- and Hydroxy-Model Lipids under Simulated Gastric Conditions” (Foods, 2021).

Data set [1] is described as follows: In vitro simulated gastric digestion of model lipid emulsions in SGF, quantitation by GC-FID. The class given is in vitro ADME. The protocol: Emulsions of model lipid compounds were prepared in a simulated gastric fluid (SGF) formulated as described in the United States Pharmacopeia. SGF contained 3.2% w/v pepsin in 0.03 M NaCl and 0.1 M HCl (pH 1.2). Different sample solutions of model lipid compounds in SGF were prepared and methyl C21:0 was added as an internal standard (IS) for quantitative purposes. Homogenization was performed in an Omnimixer (Sorvall, Newton, PA, USA) at 10,000 rpm for 5 min at 1-min intervals, as described elsewhere. […] Samples of 1, 2, 3 and 4 mL (~16 μmol mL^−1 of each compound) were used. • - Two methyl 9,10-epoxysteatate emulsions, i.e., 5 and 15 mg mL^−1, both with 10 mg mL^−1 of the IS, in SGF. Samples of 1, 2, 3 and 4 mL (16 and 46 μmol mL^−1) were used. • - Three methyl linoleate hydroperoxides emulsions, i.e., 5, 7.5 and 10 mg mL^−1, with 1, 1.5 and 2 mg mL^−1 of the IS, respectively. Additional methyl hydroperoxides emulsions at the same concentrations were prepared adjusting the pH to 3.0 and 6.6 with 1 M NaHCO3. Samples of 4 mL (15.3, 23.0 and 30.6 μmol mL^−1) were used.
Gastric digestion was simulated using a classical in vitro model. Emulsions of lipid model compounds prepared as described in Section 2.3. were used for digestion assays immediately after preparation. Triplicate emulsions were incubated in a shaking water bath for 3 h at 37 °C/100 rpm.
Lipids were thoroughly extracted with 1:1 hexane:diethyl ether after vigorous shaking in a vortex and centrifugation at 2000 rpm. Hexane and diethyl ether have been previously used for lipid extraction of oil-in-water emulsions. The extraction procedure was repeated three times and the organic extracts were pooled and washed with distilled water. After filtration through anhydrous sodium sulfate, the solvent was evaporated in a rotatory evaporator under reduced pressure at room temperature and the extracted lipids were dried using a stream of nitrogen.
Initial and digested samples were analyzed by gas-liquid chromatography using an HP 6890 Series chromatograph (Hewlett-Packard, Avondale, PA, USA) equipped with a split-splitless injector operating in the split mode with a 40:1 split ratio at 250 °C, a J&W DB-Wax fused-silica capillary column, 60 m × 0.25 mm I.D., film thickness 0.25 μm (J&W Scientific, Folsom, CA, USA) and a flame ionization detector that was used at 250 °C. The analyses were run using hydrogen as carrier gas at 1 mL min^−1 and under isothermal conditions using 230 °C for 25 min. Injections were carried out automatically using a 6890 Series autosampler (Agilent Technologies, Karlsruhe, Germany). A volume of 1 μL of sample dissolved in diethyl ether (~5 mg mL^−1) was analyzed.

The conditions of data set [2]: rat, in vivo; cited from earlier work.
Where [3] appears, read: equimolar mixture, 16 μmol mL^−1 each, sample volume 1 mL, SGF pH 1.2, 3 h 37 °C.
[4] abbreviates: equimolar mixture, 16 μmol mL^−1 each, sample volume 2 mL, SGF pH 1.2, 3 h 37 °C.
The mark [5] stands for this setting: equimolar mixture, 16 μmol mL^−1 each, sample volume 3 mL, SGF pH 1.2, 3 h 37 °C.
Where [6] appears, read: equimolar mixture, 16 μmol mL^−1 each, sample volume 4 mL, SGF pH 1.2, 3 h 37 °C.
Setting [7] is: tested alone, initial 15.79 μmol mL^−1, sample volume 1 mL, SGF pH 1.2.
Where [8] appears, read: tested alone, initial 15.79 μmol mL^−1, sample volume 2 mL, SGF pH 1.2.
[9] abbreviates: tested alone, initial 15.79 μmol mL^−1, sample volume 3 mL, SGF pH 1.2.
Where [10] appears, read: tested alone, initial 15.79 μmol mL^−1, sample volume 4 mL, SGF pH 1.2.
Setting [11] is: tested alone, initial 46.03 μmol mL^−1, sample volume 1 mL, SGF pH 1.2.
The mark [12] stands for this setting: tested alone, initial 46.03 μmol mL^−1, sample volume 2 mL, SGF pH 1.2.
The mark [13] stands for this setting: tested alone, initial 46.03 μmol mL^−1, sample volume 3 mL, SGF pH 1.2.
Setting [14] is: tested alone, initial 46.03 μmol mL^−1, sample volume 4 mL, SGF pH 1.2.

Several values for one entry are separate records, joined by “and”; a condition that tells them apart may be missing. Equal entries are not always repeated. Entries after “also recorded” stand apart in the source; their conditions may differ.

For the compound `CCCCCCCCC1OC1CCCCCCCC(=O)OC` (stereo not drawn) [methyl 9,10-epoxystearate, Methyl trans-9,10-epoxystearate], the “Losses after in vitro gastric digestion, range over all samples” value in data set [1] (all concentrations and sample volumes tested, SGF pH 1.2) was 17.8–58.8%. In addition, the “Final Concentration” value in data set [1] (setting [3]) is reported as 7.52 ± 0.73 a μmol mL^−1; in data set [1] (setting [4]), 7.79 ± 0.65 ab μmol mL^−1; in data set [1] (setting [5]) it was 8.89 ± 0.43 b μmol mL^−1; in data set [1] (setting [6]), 9.55 ± 0.40 b μmol mL^−1. Also, the “Loss % after Digestion” value in data set [1] (setting [3]) is reported as 52.7 ± 4.6 B %; in data set [1] (setting [4]) it was 51.3 ± 4.0 AB %; in data set [1] (setting [5]), 44.4 ± 2.7 A %; in data set [1] (setting [6]), 40.3 ± 2.5 A %; in data set [1] (setting [7]), 58.8 ± 6.8 D %; in data set [1] (setting [8]) it was 54.4 ± 5.0 CD %. Moreover, the “Loss % after Digestion” value was 49.3 ± 3.0 CD % in data set [1] (setting [9]); 43.2 ± 3.8 BC % in data set [1] (setting [10]); 43.2% and 43.2 ± 4.9 BC % in data set [1] (setting [11]); 33.7 ± 3.2 B % in data set [1] (setting [12]); 23.8 ± 1.8 A % in data set [1] (setting [13]); 17.8% and 17.8 ± 4.3 A % in data set [1] (setting [14]). For the same compound, the “Final [9,10-Epoxystearate]” value is 6.50 ± 1.07 a μmol mL^−1 in data set [1] (setting [7]); 7.20 ± 0.80 ab μmol mL^−1 in data set [1] (setting [8]); 8.00 ± 0.48 ab μmol mL^−1 in data set [1] (setting [9]); 8.97 ± 0.60 b μmol mL^−1 in data set [1] (setting [10]); 26.16 ± 2.24 a μmol mL^−1 in data set [1] (setting [11]); 30.53 ± 1.48 a μmol mL^−1 in data set [1] (setting [12]). Moreover, the “Final [9,10-Epoxystearate]” value in data set [1] (setting [13]) is given as 35.06 ± 0.81 b μmol mL^−1; in data set [1] (setting [14]), 37.82 ± 1.96 b μmol mL^−1.
As to linoleic acid hydroperoxides, the “Share decomposed to a variety of compounds in the stomach” value in data set [2] was “about 70%”.
As for `CCCCCCC(O)CCCCCCCCCCC(=O)OC` (centres unmarked) [methyl 12-hydroxystearate], the “Final Concentration” value in data set [1] (setting [3]) is reported as 15.92 ± 0.40 c μmol mL^−1; in data set [1] (setting [4]) it was 15.45 ± 1.03 c μmol mL^−1; in data set [1] (setting [5]) it was 16.13 ± 0.39 c μmol mL^−1; in data set [1] (setting [6]), 15.51 ± 1.13 c μmol mL^−1.
In the case of `CCCCCCC(=O)CCCCCCCCCCC(=O)OC` [methyl 12-oxostearate], the “Change after simulated gastric digestion (in words)” value in data set [1] (equimolar mixture, 16 μmol mL^−1 each, 1-4 mL, SGF pH 1.2) was “remained unaltered; also recorded: remained at the starting levels”. In addition, the “Final Concentration” value in data set [1] (setting [3]) is given as 16.11 ± 0.21 c μmol mL^−1; in data set [1] (setting [4]), 15.80 ± 0.37 c μmol mL^−1; in data set [1] (setting [5]), 15.88 ± 0.73 c μmol mL^−1; in data set [1] (setting [6]) it was 16.15 ± 0.58 c μmol mL^−1.
